Test: molar heat capacity at constant pressure
Details: 101.33 kPa, Small (less than 1 g) adiabatic calorimetry

CC(C)(C)c1ccc(Oc2ccc([N+](=O)[O-])cc2)cc1 [1-(tert-butyl)-4-(4-nitrophenoxy)benzene]
Details	molar heat capacity at constant pressure [J/K/mol]
147.54 K, Crystal	187.32
148.06 K, Glass	190.82
148.34 K, Crystal	188.16
148.86 K, Glass	191.65
149.14 K, Crystal	188.9
149.66 K, Glass	192.65
149.94 K, Crystal	189.82
150 K, Crystal	189.82
150.46 K, Glass	193.56
150.74 K, Crystal	190.57
151.26 K, Glass	194.31
151.54 K, Crystal	191.48
152.06 K, Glass	195.14
152.35 K, Crystal	192.31
152.86 K, Glass	195.97
153.15 K, Crystal	193.23
153.66 K, Glass	196.89
153.95 K, Crystal	194.14
154.46 K, Glass	197.88
154.75 K, Crystal	194.81
155.26 K, Glass	198.63
155.55 K, Crystal	195.89
156.06 K, Glass	199.63
156.35 K, Crystal	196.72
156.86 K, Glass	200.38
157.15 K, Crystal	197.47
157.66 K, Glass	201.21
157.95 K, Crystal	198.13
158.46 K, Glass	201.96
158.75 K, Crystal	199.21
159.26 K, Glass	202.87
159.55 K, Crystal	200.21
160 K, Crystal	200.63
160.06 K, Glass	203.79
160.35 K, Crystal	201.13
160.85 K, Glass	204.7
161.15 K, Crystal	202.12
161.95 K, Crystal	202.71
162.45 K, Glass	206.7
162.75 K, Crystal	203.62
163.25 K, Glass	207.28
163.55 K, Crystal	204.37
164.04 K, Glass	208.36
164.35 K, Crystal	205.62
164.84 K, Glass	209.11
165.15 K, Crystal	206.53
165.64 K, Glass	209.94
165.95 K, Crystal	207.36
166.44 K, Glass	210.52
166.75 K, Crystal	208.11
167.23 K, Glass	211.35
167.55 K, Crystal	209.11
168.03 K, Glass	212.35
168.34 K, Crystal	210.11
168.81 K, Glass	213.35
169.14 K, Crystal	210.44
169.61 K, Glass	214.18
169.94 K, Crystal	211.44
170 K, Crystal	211.44
170.41 K, Glass	214.93
170.73 K, Crystal	212.93
171.2 K, Glass	216.18
171.53 K, Crystal	213.1
172 K, Glass	217.01
172.33 K, Crystal	214.01
172.79 K, Glass	217.67
173.12 K, Crystal	214.76
173.59 K, Glass	218.42
173.92 K, Crystal	215.68
174.38 K, Glass	219.58
174.72 K, Crystal	216.59
175.18 K, Glass	220.25
175.51 K, Crystal	218.01
175.97 K, Glass	221.25
176.31 K, Crystal	218.34
176.77 K, Glass	221.83
177.11 K, Crystal	219.25
177.56 K, Glass	222.49
177.91 K, Crystal	219.83
178.36 K, Glass	223.49
178.7 K, Crystal	220.33
179.15 K, Glass	224.32
179.5 K, Crystal	221.5
179.94 K, Glass	224.99
180 K, Crystal	222.33
180.3 K, Crystal	222.33
180.74 K, Glass	225.74
181.08 K, Crystal	223.58
181.52 K, Glass	226.98
181.88 K, Crystal	224.41
182.67 K, Crystal	224.99
183.09 K, Glass	227.73
183.47 K, Crystal	225.82
183.89 K, Glass	229.73
184.26 K, Crystal	226.74
184.68 K, Glass	230.39
185.06 K, Crystal	227.57
185.47 K, Glass	231.56
185.85 K, Crystal	228.48
186.26 K, Glass	232.14
186.65 K, Crystal	229.15
187.05 K, Glass	232.97
187.44 K, Crystal	230.48
187.84 K, Glass	233.97
188.22 K, Crystal	231.31
188.63 K, Glass	234.63
189.02 K, Crystal	232.14
189.42 K, Glass	235.47
189.81 K, Crystal	233.3
190 K, Crystal	233.22
190.21 K, Glass	236.46
190.6 K, Crystal	233.97
190.99 K, Glass	237.29
191.39 K, Crystal	234.63
191.78 K, Glass	237.88
192.19 K, Crystal	235.38
192.57 K, Glass	238.87
192.98 K, Crystal	236.3
193.36 K, Glass	239.79
193.75 K, Crystal	236.96
194.13 K, Glass	240.95
194.54 K, Crystal	237.79
194.91 K, Glass	241.45
195.33 K, Crystal	238.54
195.7 K, Glass	241.95
196.12 K, Crystal	239.46
196.49 K, Glass	243.2
196.91 K, Crystal	240.62
197.27 K, Glass	243.95
197.7 K, Crystal	241.29
198.06 K, Glass	245.11
198.49 K, Crystal	242.12
198.84 K, Glass	245.94
199.28 K, Crystal	243.03
199.63 K, Glass	246.69
200 K, Crystal	244.28
200.07 K, Crystal	244.03
200.62 K, Glass	248.02
201.06 K, Crystal	245.28
202.26 K, Crystal	246.86
203 K, Glass	251.26
203.46 K, Crystal	247.94
204.2 K, Glass	252.18
204.66 K, Crystal	249.18
205.4 K, Glass	253.42
205.86 K, Crystal	250.85
206.6 K, Glass	254.76
207.05 K, Crystal	252.26
207.79 K, Glass	256.09
208.26 K, Crystal	253.26
208.99 K, Glass	257.5
209.45 K, Crystal	254.42
210 K, Crystal	255.34

Reference: the NIST ThermoML archive (doi:10.1016/j.jct.2016.10.031)
